In US7094405B1, “Peptides which elicit a high neutralizing antibody titer, cytotoxic T lymphocyte response and T helper cell response in a broad range of MHC type recipients” (priority 1986, dated 2006):
Read-outs that look alike come from different tables or passages of the source.

Legend:
[1] = tested on: peripheral blood lymphocytes of HIV-positive, influenza positive humans; conditions: cited from earlier work; for tested cases with significant IL-2 responses: peripheral blood lymphocytes of HIV-positive, influenza positive humans, previous study (42)
[2] = tested on: gp160-expressing 15-12 BALB/c fibroblast cell line; format: cell-based; conditions: spleen cells of B10.A(5R) mice immunized with 20 nmoles PCLUS4-18, restimulated 6 days
Description: The resulting effector cells were tested on the gp160-expressing 15-12 BALB/c fibroblast cell line or on neo-only transfected fibroblast cells (not shown) as targets (FIG. 9B). […] SEM of triplicate wells was less than 7.3% of the mean.

[3] = tested on: Peptide 18; conditions: for ELISA: Mean p18 Specific Absorbance ± S.E.M.: 31 days after single immunization with 20 nanomole peptide, 5 mouse sera at 1:1000 serum dilution
Description: ELISA. Wells of round bottom flexible PVC microtiter plates (#3912 Falcon Labware, Oxnard, Calif.) were coated overnight at 4° C. with 100 μl of 10 μM Peptide 18, substituted peptide 18, cluster peptide 3, cluster peptide 6, 0.2 μg/ml recombinant gp 120 (ABT, Advanced Biotechnologies, Mass.) or 2 μM sperm whale myoglobin in 0.1 M carbonate buffer pH 9.6. […] The plates were blocked with 1% BSA in phosphate buffered saline (PBS) for 1-1.5 h. at 4° C. and washed with PBS containing 0.05% Tween 20 and 1% BSA (PBSTB). Next, 100 μl of test serum was added to duplicate wells and incubated for 1-1.5 h. at 4° C. Test sera were assayed at 10 fold dilutions in PBSTB ranging from 1:100-1:10,000. The wells were then washed with 200 μl PBSTB 10 times using an automatic plate washer (BioRad Model 1550) and incubated for 1 h at 4° C. with 100 μl alkaline phosphatase-conjugated goat anti-mouse IgG (Promega, Madison, Wis.) diluted 1:7500 in PBSTB. After 10 washes, bound antibodies were detected by the addition of 100 μl of 1 mg/ml paranitrophenyl phosphate as substrate. The optical density at 405 nm was read with an ELISA reader. Specific absorbance was determined as the mean optical density at 405 nm on the relevant antigen coated wells minus the optical density 405 nm on nonrelevant sperm whale myoglobin coated wells.
(§1) Immunizations. Mice were immunized intraperitoneally with 20 nanomoles of each peptide emulsified 1:1 in Freund's Complete Adjuvant (CFA). At days 21 and 31 post immunization blood was drawn by retroorbital bleed, allowed to clot and the serum removed and frozen at −20° C.

[4] = tested on: HIV-1 IIIB; assay: Neutralization of HIV-1 IIIB by immune sera, quantitative infectivity microassay using CEM-SS cells; format: in vivo; conditions: 31 days after single immunization with 20 nanomole peptide
Description: as §1
Neutralization assays of HIV-1. The quantitative infectivity microassay using CEM-SS cells was performed as described previously (52). […] The mixtures were added to duplicate wells containing 5×10^4 DEAE-dextran treated CEM-SS cells for 1 h at 37° C., after which the virus-antibody mixtures were removed and replaced with medium, and the cells cultured only in complete medium for 5 days (for HIV-1 IIIB) or 4 days (for HIV-1 MN, determined to be optimal for each virus strain) at 37° C. in 5% CO2. Units of infectious virus were quantitated by subsequent syncytia formation of infected cells under an inverted microscope. […] The assay measures neutralization of cell-free virus in the first incubation, not inhibition of syncytium formation, which is only the readout for enumerating infectious virus. […]

[5] = tested on: BALB/c.3T3 transfectants expressing the whole gp160 protein (cell line 15-12) or P18 pulsed 18neo cells; format: in vivo, mice
Description: Mice 8-20 weeks old were immunized subcutaneously at the tail base with 20 nmoles of each peptide mixed with QS21 (15 μg), the highly purified saponin fraction from the soap bark tree Quillaja saponaria, which retains the greatest adjuvant activity but is non-toxic (103). […] Cytolytic activity of in vitro secondary CTL was measured as described previously (104) using a 6 hr. assay with ^51Cr-labeled targets. […] Maximum release was determined from supernatants of cells that were lysed by the addition of 5% Triton X-100. Spontaneous release was determined from targets cells incubated without added effectors cells. The assay was performed in triplicate, with 5000 target cells per well.
Background lysis on control 18neo fibroblasts in the absence of peptide was less than 8%. SEM of triplicate wells was less than 7.2% of the mean.

AVAEGTDRVIEVVQGAYRAIRHIPRRIRQGLER [PCLUS6]
tested cases with significant IL-2 responses [1]: 58%

EQMHEDIISLWDQSLKPCVK [PCLUS 1]
donors in which IL-2 production was stimulated ([1]; HIV seropositive, flu-positive donors): 23 of 36 | tested cases with significant IL-2 responses [1]: 64%

KQIINMWQEVGKAMYAPPISGQIR [PCLUS3]
tested cases with significant IL-2 responses [1]: 73%

RDNWRSELYKYKVVKIEPLGVAPT [PCLUS4]
tested cases with significant IL-2 responses [1]: 52% | induction of CTL activity on in vitro restimulation (in words) [2]: did not induce any CTL activity

RIQRGPGRAFVTIGK [Peptide P18]
ELISA: Mean p18 Specific Absorbance ± S.E.M. ([3]; B10.A(5R) (A^bE^b) mice): 0.00 | ELISA: Mean p18 Specific Absorbance ± S.E.M. ([3]; B10.BR or B10.A (A^kE^k) mice): 0.00 | ELISA: Mean p18 Specific Absorbance ± S.E.M. ([3]; B10.HTT (A^aE^a) mice): 0.00 | ELISA: Mean p18 Specific Absorbance ± S.E.M. ([3]; BALB/c or B10.D2 (A^dE^d) mice): 0.00 | peptide 18 specific antibody response (in words) ([3]; mice of four strains immunized with 20 nanomoles of construct): no peptide 18 specific antibody was detected | No. of mice with positive neutralizing titers/total tested ([4]; B10.BR or B10.A (A^kE^k) mice): (0/5) | No. of mice with positive neutralizing titers/total tested ([4]; BALB/c or B10.D2 (A^dE^d) mice): (0/5) | CTL activity, linkage requirement experiment (in words) ([5]; B10.D2 (PCLUS3 series) or B10.A(5R) (PCLUS4 series) mice, QS21, restimulated with 0.1 μM P18 and rIL2): negligible | CTL activity after single immunization in QS21 (in words) ([5]; B10.D2, B10.A(5R), B10.S(9R) mice, restimulated with P18, E:T up to 60:1): only marginal CTL activity | induction of CTL activity on in vitro restimulation (in words) [2]: not
